Values of other authors in article PMC9851200, “Multiparameter phenotypic screening for endogenous TFEB and TFE3 translocation identifies novel chemical series modulating lysosome function” (Autophagy, 2022).

How the values were obtained:
Parameters in all cases: method as in original PKIS2 published data
[1] = target: kinases (KINOMEscan panel) (Homo sapiens, UniProt Q13705); conditions: kinase ACVR2B; Published KINOMEscan; ref original PKIS2 published data; cited from earlier work
[2] = target: T1, kinases (KINOMEscan panel) (Homo sapiens, UniProt Q13546); conditions: kinase RIPK1; Published KINOMEscan; ref original PKIS2 published data; cited from earlier work
T1 sequence (Q13546 1-671): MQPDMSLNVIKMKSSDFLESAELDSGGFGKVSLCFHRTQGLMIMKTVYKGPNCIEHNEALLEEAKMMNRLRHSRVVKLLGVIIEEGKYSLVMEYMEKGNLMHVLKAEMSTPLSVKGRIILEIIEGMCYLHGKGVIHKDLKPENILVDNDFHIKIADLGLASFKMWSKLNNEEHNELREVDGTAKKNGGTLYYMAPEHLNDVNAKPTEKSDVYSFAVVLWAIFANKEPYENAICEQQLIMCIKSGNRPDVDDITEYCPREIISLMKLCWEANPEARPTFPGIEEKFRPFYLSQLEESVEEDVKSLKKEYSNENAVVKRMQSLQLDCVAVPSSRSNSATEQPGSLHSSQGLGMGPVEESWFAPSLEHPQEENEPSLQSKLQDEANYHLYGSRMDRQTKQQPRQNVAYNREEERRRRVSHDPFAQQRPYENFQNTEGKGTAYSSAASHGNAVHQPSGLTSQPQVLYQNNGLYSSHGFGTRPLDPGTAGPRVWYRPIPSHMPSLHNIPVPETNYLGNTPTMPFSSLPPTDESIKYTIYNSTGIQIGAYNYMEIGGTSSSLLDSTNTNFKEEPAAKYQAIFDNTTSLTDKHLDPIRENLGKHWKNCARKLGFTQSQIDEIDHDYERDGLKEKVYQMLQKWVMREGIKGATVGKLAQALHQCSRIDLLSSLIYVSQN

[3] = target: kinases (KINOMEscan panel) (Homo sapiens, UniProt Q96SB4); conditions: kinase SRPK1; Published KINOMEscan; ref original PKIS2 published data; cited from earlier work
[4] = target: kinases (KINOMEscan panel) (Homo sapiens, UniProt Q9Y463); conditions: kinase DYRK1B; Published KINOMEscan; ref original PKIS2 published data; cited from earlier work
[5] = target: T2, kinases (KINOMEscan panel) (Homo sapiens, UniProt Q8NFD2); conditions: ANKK1; Published KINOMEscan; ref original PKIS2 published data; cited from earlier work
T2 sequence (Q8NFD2 1-765): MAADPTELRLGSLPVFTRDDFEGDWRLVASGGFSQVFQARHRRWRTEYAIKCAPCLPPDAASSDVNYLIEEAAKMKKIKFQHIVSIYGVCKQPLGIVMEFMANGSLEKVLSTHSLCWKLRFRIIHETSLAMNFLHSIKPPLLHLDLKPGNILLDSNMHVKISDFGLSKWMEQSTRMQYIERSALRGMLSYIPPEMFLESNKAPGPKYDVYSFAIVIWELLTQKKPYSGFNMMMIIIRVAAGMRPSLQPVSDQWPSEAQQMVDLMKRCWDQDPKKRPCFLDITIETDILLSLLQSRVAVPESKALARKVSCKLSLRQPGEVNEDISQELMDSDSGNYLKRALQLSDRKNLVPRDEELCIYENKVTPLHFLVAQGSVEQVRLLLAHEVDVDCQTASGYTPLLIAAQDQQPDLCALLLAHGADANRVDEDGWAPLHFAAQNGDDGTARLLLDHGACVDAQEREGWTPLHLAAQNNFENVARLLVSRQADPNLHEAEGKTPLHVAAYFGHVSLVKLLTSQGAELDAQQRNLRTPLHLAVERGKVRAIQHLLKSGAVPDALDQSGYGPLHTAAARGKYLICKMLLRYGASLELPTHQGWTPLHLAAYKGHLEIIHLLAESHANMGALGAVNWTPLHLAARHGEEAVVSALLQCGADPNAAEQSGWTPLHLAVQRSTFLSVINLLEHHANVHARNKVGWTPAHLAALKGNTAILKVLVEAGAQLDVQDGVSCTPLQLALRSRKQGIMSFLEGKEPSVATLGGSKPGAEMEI

[6] = target: kinases (KINOMEscan panel) (Homo sapiens, UniProt P00519); conditions: Published KINOMEscan, ref original PKIS2 published data, cited from earlier work
[7] = target: kinases (KINOMEscan panel) (Homo sapiens, UniProt P09619); conditions: Published KINOMEscan; ref original PKIS2 published data; cited from earlier work
Chain of kinases (KINOMEscan panel) (Homo sapiens, UniProt P09619) (P09619 33-1106): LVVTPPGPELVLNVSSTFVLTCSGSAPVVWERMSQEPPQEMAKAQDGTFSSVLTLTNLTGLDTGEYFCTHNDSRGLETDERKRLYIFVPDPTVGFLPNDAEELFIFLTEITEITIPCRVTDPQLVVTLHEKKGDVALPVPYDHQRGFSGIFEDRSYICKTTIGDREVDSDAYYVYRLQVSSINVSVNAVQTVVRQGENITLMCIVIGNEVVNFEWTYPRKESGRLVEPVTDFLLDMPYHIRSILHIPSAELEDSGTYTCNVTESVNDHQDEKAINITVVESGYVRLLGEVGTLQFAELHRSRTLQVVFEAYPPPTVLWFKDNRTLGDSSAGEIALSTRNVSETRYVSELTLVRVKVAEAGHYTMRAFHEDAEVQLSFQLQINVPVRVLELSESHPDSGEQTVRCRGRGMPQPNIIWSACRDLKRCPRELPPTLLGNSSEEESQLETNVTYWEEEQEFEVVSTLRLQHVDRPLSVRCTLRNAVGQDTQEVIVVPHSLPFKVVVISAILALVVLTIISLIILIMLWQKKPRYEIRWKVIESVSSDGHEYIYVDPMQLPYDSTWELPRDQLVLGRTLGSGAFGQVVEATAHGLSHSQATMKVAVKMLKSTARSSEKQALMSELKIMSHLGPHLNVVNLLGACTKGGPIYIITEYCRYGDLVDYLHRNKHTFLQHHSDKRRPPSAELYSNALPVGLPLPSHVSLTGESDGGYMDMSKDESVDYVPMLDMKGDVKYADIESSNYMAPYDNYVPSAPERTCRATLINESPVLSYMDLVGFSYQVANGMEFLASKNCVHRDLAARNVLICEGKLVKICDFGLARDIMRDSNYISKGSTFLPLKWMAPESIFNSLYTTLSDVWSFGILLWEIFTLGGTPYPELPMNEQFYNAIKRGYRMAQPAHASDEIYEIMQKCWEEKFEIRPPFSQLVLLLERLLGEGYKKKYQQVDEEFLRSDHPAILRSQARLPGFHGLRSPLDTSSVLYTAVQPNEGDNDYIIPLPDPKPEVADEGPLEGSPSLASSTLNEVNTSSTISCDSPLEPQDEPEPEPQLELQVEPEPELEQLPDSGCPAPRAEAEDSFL

Chain of kinases (KINOMEscan panel) (Homo sapiens, UniProt P00519) (P00519 whole entry): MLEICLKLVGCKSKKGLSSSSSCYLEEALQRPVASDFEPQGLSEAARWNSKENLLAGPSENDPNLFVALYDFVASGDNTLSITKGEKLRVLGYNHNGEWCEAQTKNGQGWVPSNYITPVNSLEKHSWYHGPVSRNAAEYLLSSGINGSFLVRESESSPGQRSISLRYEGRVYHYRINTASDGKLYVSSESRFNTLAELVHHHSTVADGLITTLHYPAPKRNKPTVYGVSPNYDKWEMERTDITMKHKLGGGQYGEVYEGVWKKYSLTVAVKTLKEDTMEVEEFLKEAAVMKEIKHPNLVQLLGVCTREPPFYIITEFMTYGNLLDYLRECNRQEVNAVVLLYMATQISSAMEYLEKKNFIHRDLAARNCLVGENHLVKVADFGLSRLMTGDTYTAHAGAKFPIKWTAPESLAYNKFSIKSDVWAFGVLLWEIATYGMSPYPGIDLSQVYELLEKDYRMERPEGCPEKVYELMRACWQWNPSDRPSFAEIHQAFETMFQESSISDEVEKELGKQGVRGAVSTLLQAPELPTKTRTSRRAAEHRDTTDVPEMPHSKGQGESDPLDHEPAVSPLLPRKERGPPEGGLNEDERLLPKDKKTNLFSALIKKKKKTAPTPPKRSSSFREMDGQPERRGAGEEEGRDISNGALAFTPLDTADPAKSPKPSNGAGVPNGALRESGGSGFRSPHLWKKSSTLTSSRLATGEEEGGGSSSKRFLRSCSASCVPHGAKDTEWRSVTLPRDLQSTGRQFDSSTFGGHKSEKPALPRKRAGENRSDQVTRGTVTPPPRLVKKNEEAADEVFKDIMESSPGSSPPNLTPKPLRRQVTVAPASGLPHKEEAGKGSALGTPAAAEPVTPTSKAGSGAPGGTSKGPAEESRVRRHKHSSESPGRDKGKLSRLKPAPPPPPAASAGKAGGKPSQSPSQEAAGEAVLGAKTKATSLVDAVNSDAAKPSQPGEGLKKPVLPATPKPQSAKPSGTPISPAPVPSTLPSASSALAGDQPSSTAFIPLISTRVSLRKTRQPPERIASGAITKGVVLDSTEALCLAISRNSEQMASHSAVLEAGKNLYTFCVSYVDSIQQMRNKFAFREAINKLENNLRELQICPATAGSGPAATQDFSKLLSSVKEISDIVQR
Chain of kinases (KINOMEscan panel) (Homo sapiens, UniProt Q96SB4) (Q96SB4 whole entry): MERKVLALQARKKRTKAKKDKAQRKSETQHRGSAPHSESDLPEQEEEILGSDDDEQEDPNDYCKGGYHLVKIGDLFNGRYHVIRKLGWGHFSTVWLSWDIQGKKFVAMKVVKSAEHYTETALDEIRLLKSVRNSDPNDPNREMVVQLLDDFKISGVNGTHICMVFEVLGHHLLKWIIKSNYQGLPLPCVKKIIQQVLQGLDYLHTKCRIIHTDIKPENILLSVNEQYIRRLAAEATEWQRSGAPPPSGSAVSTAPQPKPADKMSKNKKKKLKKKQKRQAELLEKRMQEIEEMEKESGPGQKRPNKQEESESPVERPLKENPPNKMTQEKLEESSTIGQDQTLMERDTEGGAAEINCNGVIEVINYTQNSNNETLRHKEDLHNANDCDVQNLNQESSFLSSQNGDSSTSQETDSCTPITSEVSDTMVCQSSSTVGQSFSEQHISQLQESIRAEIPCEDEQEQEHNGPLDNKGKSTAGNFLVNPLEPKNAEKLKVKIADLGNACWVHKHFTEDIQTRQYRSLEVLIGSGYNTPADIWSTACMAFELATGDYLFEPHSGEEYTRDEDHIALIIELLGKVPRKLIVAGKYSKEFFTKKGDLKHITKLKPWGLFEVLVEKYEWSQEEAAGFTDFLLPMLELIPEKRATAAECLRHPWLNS
Chain of kinases (KINOMEscan panel) (Homo sapiens, UniProt Q13705) (Q13705 19-512): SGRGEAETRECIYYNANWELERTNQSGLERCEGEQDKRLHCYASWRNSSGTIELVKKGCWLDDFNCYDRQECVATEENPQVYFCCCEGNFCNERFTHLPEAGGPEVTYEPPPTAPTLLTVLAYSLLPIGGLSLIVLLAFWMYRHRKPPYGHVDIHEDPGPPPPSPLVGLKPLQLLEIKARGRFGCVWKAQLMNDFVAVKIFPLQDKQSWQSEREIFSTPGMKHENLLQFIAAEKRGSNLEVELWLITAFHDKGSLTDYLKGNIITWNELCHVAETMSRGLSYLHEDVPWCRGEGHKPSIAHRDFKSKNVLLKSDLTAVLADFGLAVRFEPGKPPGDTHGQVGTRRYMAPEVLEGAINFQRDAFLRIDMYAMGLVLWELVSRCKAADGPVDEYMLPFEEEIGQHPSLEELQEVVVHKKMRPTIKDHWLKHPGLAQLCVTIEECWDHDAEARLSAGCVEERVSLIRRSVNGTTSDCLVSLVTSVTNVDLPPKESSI
Chain of kinases (KINOMEscan panel) (Homo sapiens, UniProt Q9Y463) (Q9Y463 whole entry): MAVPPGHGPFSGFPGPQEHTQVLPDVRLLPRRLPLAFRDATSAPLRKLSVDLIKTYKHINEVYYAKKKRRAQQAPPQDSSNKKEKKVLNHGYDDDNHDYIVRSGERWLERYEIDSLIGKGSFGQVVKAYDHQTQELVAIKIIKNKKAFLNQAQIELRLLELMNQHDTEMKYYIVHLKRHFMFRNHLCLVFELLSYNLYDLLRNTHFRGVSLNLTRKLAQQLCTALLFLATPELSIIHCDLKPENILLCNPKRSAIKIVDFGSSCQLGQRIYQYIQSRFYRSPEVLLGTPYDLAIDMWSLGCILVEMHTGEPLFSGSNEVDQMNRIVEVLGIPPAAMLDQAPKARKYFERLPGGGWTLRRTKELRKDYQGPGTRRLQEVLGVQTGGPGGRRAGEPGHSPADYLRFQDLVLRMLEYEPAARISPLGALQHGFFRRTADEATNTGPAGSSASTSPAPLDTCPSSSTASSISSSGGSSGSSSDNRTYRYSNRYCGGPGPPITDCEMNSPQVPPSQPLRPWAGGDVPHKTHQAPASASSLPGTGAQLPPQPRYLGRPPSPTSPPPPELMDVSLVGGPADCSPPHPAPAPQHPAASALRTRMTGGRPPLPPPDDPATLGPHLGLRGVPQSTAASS

Cc1cccc(-c2nc(Nc3ccncc3)c3ccccc3n2)n1 [NK215]
KINOMEscan ACVR2B [1]: 36
KINOMEscan RIPK1 [2]: 4
KINOMEscan SRPK1 [3]: 0
KINOMEscan DYRK1B [4]: 27
KINOMEscan ANKK1 [5]: 0
KINOMEscan ABL1-nonphosphorylated ([6]; ABL1-nonphosphorylated): 39
KINOMEscan ABL1-phosphorylated ([6]; ABL1-phosphorylated): 28
KINOMEscan PDGFRB [7]: 3
